This passage reports IC50 and inhibition results from patent publication US5739163A, “Aromatic compounds containing basic and acidic termini useful as fibrinogen receptor antagonists” (The DuPont Merck Pharmaceutical Company, priority 1996, dated 1998).

pIC50: −log10 of the molar value. Structures can show the parent of a compound that is named as a salt.

For the assay, the system named is agonist-induced platelet aggregation. Briefly: Platelet Aggregation Assay. The assay is classed as cell-based. The settings on record: human platelet-rich plasma. The method, then: Platelet Aggregation Assay: Venous blood was obtained from the arm of a healthy human donor who was drug-free and aspirin-free for at least two weeks prior to blood collection. Blood was collected into 10 mL citrated Vacutainer tubes. The blood was centrifuged for 15 minutes at 150×g at room temperature, and platelet-rich plasma (PRP) was removed. The remaining blood was centrifuged for 15 minutes at 1500×g at room temperature, and platelet-poor plasma (PPP) was removed. […] The results are expressed as % inhibition of agonist-induced platelet aggregation. For the IC50 evaluation, the test compounds were added at various concentrations prior to the activation of the platelets.

Setting [1] is: Homo sapiens, Platelet, class symbols.
Setting [2] is: Homo sapiens, Platelet, numeric bound.

Usually pIC50 stands for −log10 of the IC50, conventionally taken in molar units. Low readings indicate a large IC50, high ones a small IC50. Where the note is “class symbols”, `NCCOc1cccc(C(=O)/C=C/c2ccc(OCC(=O)O)cc2)c1` [Example 1, (E)-4-[3-((3-(2-Aminoethoxy)phenyl))-3-oxo-1-propenyl]phenoxyacetic acid.hydrochloride] gave a negative-log IC50 (pIC50) of 4.30 to 5.00. In the case of `CCOC(=O)c1cc(/C=C/C(=O)c2cccc(OCCN)c2)ccc1OCC(=O)O` [Example 2, (E)-Ethyl 5-[3-((3-(2-aminoethoxy)phenyl))-3-oxo-1-propenyl]-2-(carboxymethoxy)benzoate.trifluoroacetate], the pIC50 under setting [1] was 4.30 to 5.00.

As for `C=CCOc1ccc(OCCN)cc1C(=O)/C=C/c1ccc(OCC(=O)O)c(C(=O)OCC)c1` [Example 3, (E)-Ethyl 5-[3-((2-(1-prop-2-enyloxy)-5-(2aminoethoxy)phenyl))-3-oxo-1-propenyl]-2-(carboxymethoxy)benzoate.trifluoroacetate], under setting [1], the pIC50 was more than 5.00.

For `CCOC(=O)c1cc(/C=C/C(=O)c2cc(OCC)cc(OCCN)c2)ccc1OCC(=O)O` [Example 20, (E)-Ethyl 5-[3-((3-(2-aminoethoxy)-5-ethoxyphenyl))-3-oxo-1-propenyl]-2-(carboxymethoxy)benzoate.trifluoroacetate], the pIC50 under setting [1] is 4.30 to 5.00. The same measure, in the same setting: with `CCOc1cc(OCCN)cc(C(=O)/C=C/c2ccc(OCC(=O)O)cc2)c1` [Example 21, (E)-4-[3-((3-(2-Aminoethoxy)-5-ethoxyphenyl))-3-oxo-1-propenyl]phenoxyacetic acid.trifluoroacetate] the figure was 4.30 to 5.00; with `CCOc1cc(/C=C/C(=O)c2cccc(OCCN)c2)ccc1OCC(=O)O` [Example 22, (E)-4-[3-((3-(2-Aminoethoxy)phenyl))-3-oxo-1-propenyl]-2-ethoxyphenoxyacetic acid.trifluoroacetate], more than 5.00. The same measure, in the same setting: with `COc1cc(/C=C/C(=O)c2cccc(OCCN)c2)ccc1OCC(=O)O` [Example 23] the figure was more than 5.00; with `CCCCOC(=O)c1cc(/C=C/C(=O)c2cccc(OCCN)c2)ccc1OCC(=O)O` [Example 24, (E)-n-Butyl 5-[3-((3-(2-aminoethoxy)-phenyl))-3-oxo-1-propenyl]-2-(carboxymethoxy)benzoate-trifluoroacetate], 4.30 to 5.00. The same measure, in the same setting: next, `NCCOc1cccc(C(=O)/C=C/c2ccc(OCC(=O)O)c(C(=O)OCC(=O)O)c2)c1` [Example 25, (E)-(Carboxymethyl) 5-[3-((3-(2aminoethoxy)-phenyl))-3-oxo-1-propenyl]-2-(carboxymethoxy)benzoate.trifluoroacetate]: more than 5.00. Under setting [1], `NCCOc1cccc(C(=O)/C=C/c2ccc(OCC(=O)O)c([N+](=O)[O-])c2)c1` [Example 26, (E)-4-[3-((3-(2-Aminoethoxy)phenyl))-3-oxo-1-propenyl]-2-nitrophenoxyacetic acid.trifluoroacetate] showed a pIC50 of more than 5.00. `CCOC(=O)COC(=O)c1cc(/C=C/C(=O)c2cccc(OCCN)c2)ccc1OCC(=O)O` [Example 27, (E)-(2-Ethoxy-2-oxoethyl) 5-[3-((3-(2-amino-ethoxy)phenyl))-3-oxo-1-propenyl]-2-(carboxymethoxy)-benzoate.trifluoroacetate]: under setting [1], the pIC50 was 4.00 to 4.29. As to `NCCOc1cccc(C(=O)/C=C/c2ccc(OCC(=O)O)c(C(=O)OCc3ccccc3)c2)c1` [Example 28, (E)-Benzyl 5-[3-((3-(2-aminoethoxy)phenyl))-3-oxo-1-propenyl]-2-(carboxymethoxy)benzoate.trifluoroacetate], under setting [1], the pIC50 is 4.00 to 4.29.

Compound `NCCOc1cccc(C(=O)/C=C/c2ccc(OCC(=O)O)c(OCC(=O)O)c2)c1` [Example 29, (E)-4-[3-((3-(2-Aminoethoxy)phenyl))-3-oxo-1-propenyl]benzene-1,2-bis(oxyacetic acid).trifluoroacetate] showed a pIC50 under setting [1] of 4.30 to 5.00. On the same count and under the same terms, with `COC(=O)c1cc(/C=C/C(=O)c2cccc(OCCN)c2)ccc1OCC(=O)O` [Example 30] the figure was 4.30 to 5.00; with `NCCOc1ccc(OCc2ccccc2)c(C(=O)/C=C/c2ccc(OCC(=O)O)c(C(=O)OCC(=O)O)c2)c1` [Example 43], more than 5.00.

With `C=CCOc1ccc(OCCN)cc1C(=O)/C=C/c1ccc(OCC(=O)O)c(C(=O)OCC(=O)O)c1` [Example 44, (E)-(Carboxymethyl) 5-((3-((2-(1-prop-2-enyloxy)-5-(2-aminoethoxy)phenyl))-3-oxo-1-propenyl))-2-(carboxymethoxy)benzoate.trifluoroacetate], under setting [1], the pIC50 is more than 5.00. Same read-out and setting: with `COc1cc(OCC(=O)O)ccc1/C=C/C(=O)c1cccc(OCCN)c1` [Example 65, (E)-4-[3-((3-(2-Aminoethoxy)phenyl))-3-oxo-1-propenyl]-3-methoxyphenoxyacetic acid.hydrochloride] the figure was 4.30 to 5.00. In turn, `NCCOc1cccc(C(=O)/C=C/c2ccc(OCC(=O)O)cc2)c1` [Example 75a] had a negative-log IC50 (pIC50) (class symbols) of 4.00 to 4.29. In the case of `C=CCc1cc(/C=C/C(=O)c2cccc(OCCN)c2)cc(C(=O)OC)c1OCC(=O)O` [Example 75b], the negative logarithm of the IC50 (pIC50) under setting [2] was less than 4.00. As to `NCCOc1cccc(C(=O)/C=C/c2ccc(OCC(=O)O)c(-c3ccccc3)c2)c1` [Example 75c], under setting [1], the pIC50 is 4.00 to 4.29. On the same count and under the same terms, with `NCc1cccc(C(=O)/C=C/c2ccc(OCC(=O)O)c(OCC(=O)O)c2)c1` [Example 76] the figure was 4.00 to 4.29.

`CCOc1cc(/C=C/C(=O)c2cccc(CCN)c2)ccc1OCC(=O)O` [Example 91, (E)-4-[3-((3-(2-Aminoethyl)phenyl))-3-oxo-1-propenyl]-2-ethoxyphenoxyaceticacid trifluoroacetate] gave a pIC50 under setting [1] of 4.00 to 4.29. A word on the inhibition: it is how much of the control response was suppressed. A high value points to a strong effect. `NCCc1cccc(C(=O)/C=C/c2ccc(OCC(=O)O)c([N+](=O)[O-])c2)c1` [Example 93]: testing at 100 µM gave an inhibition of 21%. Under setting [2], this compound showed a pIC50 of less than 4.00.

With `CCOC(=O)c1cc(/C=C/C(=O)c2cccc(CC(C)N)c2)ccc1OCC(=O)O` (stereo not shown) [Example 101, (E)-Ethyl 5-[3-((3-(2-aminopropyl)phenyl))-3-oxo-1-propenyl]-2(carboxymethoxy)benzoate.trifluoroacetate], for the setting “class symbols”, the negative logarithm of the IC50 (pIC50) is 4.30 to 5.00. Turning to `COc1cc(/C=C/C(=O)c2cccc(CNC(=N)N)c2)ccc1OCC(=O)O` [Example 112, (E)-4-[3-((3-(guanidinylmethyl)phenyl))-3-oxo-1-propenyl]-2-methoxyphenoxyacetic acid.trifluoroacetate], under setting [1], the pIC50 is 4.30 to 5.00.

The compound `COc1cc(/C=C/C(=O)c2cccc(N3CCNCC3)c2)ccc1OCC(=O)O` [Example 120] had a pIC50 under setting [1] of more than 5.00.

Take `CNCCOc1cccc(C(=O)/C=C/c2ccc(OCC(=O)O)c(OC)c2)c1` [Example 121, (E)-4-[[3-[3-((2-(methylamino)ethoxy))-phenyl]-3-oxo-1-propenyl]]-2-methoxyphenoxyacetic acid.trifluoroacetate]: the pIC50 under setting [1] was 4.30 to 5.00. In the case of `NCc1cccc(C(=O)/C=C/c2ccc(OCC(=O)O)cc2)c1` [Example 125a], under setting [2], the pIC50 was less than 4.00. For the compound `NCCOc1cccc(C(=O)CCc2ccc(OCC(=O)O)cc2)c1` [Example 126, 4-[3-((3-(2-Aminoethoxy)phenyl))-3-oxo-1-propyl]phenoxyacetic acid.hydrochloride], the pIC50 under setting [1] is 4.00 to 4.29. Under setting [2], `COc1cc(C(=O)/C=C/c2cccc(OCCN)c2)ccc1OCC(=O)O` [Example 211, (E)-4-[3-((3-(2-aminoethoxy)phenyl))-1-oxo-prop-2-enyl]-2-methoxyphenoxyacetic acid.trifluoroacetate] had a pIC50 of less than 4.00. Still for that read-out and setting: next, `NCCc1cccc(C(=O)/C=C/c2ccc([N+](=O)[O-])c(OCC(=O)O)c2)c1` [Example 240]: less than 4.00. Compound `NCCCCc1ccc(C(=O)/C=C/c2ccc(OCC(=O)O)cc2)cc1` [Example 241] gave a pIC50 under setting [2] of less than 4.00.

Consider `NCCOc1cccc(C(=O)/C=C/c2ccc(OCCC(=O)O)cc2)c1` [Example 242], for which, under setting [2], the pIC50 is less than 4.00.

Under setting [2], `NCCCCc1ccc(C(=O)/C=C/c2ccc(CCC(=O)O)cc2)cc1` [Example 243] gave a negative logarithm of the IC50 (pIC50) of less than 4.00. Same read-out and setting: next, `NCc1cccc(C(=O)/C=C/c2cccc(OCC(=O)O)c2)c1` [Example 244]: less than 4.00. Take `NCc1ccc(C(=O)/C=C/c2ccc(CCC(=O)O)cc2)cc1` [Example 245]: the inhibition at 100 µM is 19%. Also, the negative-log IC50 (pIC50) under setting [2] is less than 4.00.

Under setting [2], `CCOC(=O)c1cc(/C=C/C(=O)c2cccc(C#CCN)c2)ccc1OCC(=O)O` [Example 247] had a pIC50 of less than 4.00. Consider `CN(C)CCOc1cccc(C(=O)/C=C/c2cccc(C(=O)O)c2)c1` [Example 248], for which the inhibition at 100 µM is 13%. This compound also had a pIC50 under setting [2] of less than 4.00. `NCc1ccc(C(=O)/C=C/c2ccc(OCC(=O)O)c([N+](=O)[O-])c2)cc1` [Example 250] had a pIC50 under setting [2] of less than 4.00. Compound `CCOC(=O)c1cc(/C=C/C(=O)c2ccccc2OCCCN)ccc1OCC(=O)O` [Example 251] came in with an inhibition at 100 µM of 18%. The pIC50 under setting [2] is less than 4.00. The matching figures for `COc1ccc(/C=C/C(=O)c2cccc(OCCN)c2)cc1CC(=O)O` [Example 252]: 38% and less than 4.00.
